Assay results reported in patent publication US5104814A, “Assay kit and methods for neuroleptic drugs” (Schering Corporation, priority 1990, dated 1992).

Key:
[1] = target: T1, D-1 receptor (Rattus norvegicus, UniProt P18901); experiment: Competition binding with [N-methyl-^3 H] Compound as radioligand in rat striatal tissue; conditions: rat striatum, radioligand 1.0 nM; read-out: KI, inhibition of binding of the labelled Compound
T1 construct: Striatal tissue was excised, pooled, and homogenized; from tissue; host or cells: striatum of male Sprague-Dawley rats, homogenized and washed by centrifugation
T1 sequence (P18901 whole entry): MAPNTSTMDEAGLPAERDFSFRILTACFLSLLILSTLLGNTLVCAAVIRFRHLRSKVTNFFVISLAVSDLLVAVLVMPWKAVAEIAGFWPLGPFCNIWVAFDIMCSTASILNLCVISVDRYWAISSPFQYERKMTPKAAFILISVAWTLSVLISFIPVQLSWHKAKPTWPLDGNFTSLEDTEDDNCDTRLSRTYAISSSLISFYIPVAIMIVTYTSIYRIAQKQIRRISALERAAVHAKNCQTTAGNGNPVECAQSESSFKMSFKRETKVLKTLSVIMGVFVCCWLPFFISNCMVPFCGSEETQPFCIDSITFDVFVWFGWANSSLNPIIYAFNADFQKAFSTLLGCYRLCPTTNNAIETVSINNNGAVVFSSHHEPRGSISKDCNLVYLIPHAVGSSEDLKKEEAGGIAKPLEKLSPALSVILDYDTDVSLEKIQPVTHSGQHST
Method: (§1) Male Sprague-Dawley rats (200 to 250 g) from Charles River Breeding Laboratories, Mass. were used to obtain brain tissue. The rats were decapitated, their brains removed and placed on ice. Striatal tissue was excised, pooled, and homogenized (Brinkman Polytron, 10 sec) in 100 volumes (v/v) of ice cold 50mM Tris-HCl buffer, pH 7.4 (at 25° C.). The homogenate was centrifuged at 20,000×g for 10 min. The resultant pellet was rehomogenized in Tris-HCl buffer and centrifuged again. The final pellet was resuspended in 50 mM Tris-HCl buffer pH 7.4 containing 120 mM NaCl, 5 mM KCL, 2 mM CaCl2, and 1 mM MgCl2.
To test the receptor specificity of [N-methyl-^3 H]

[2] = tested on: rat striatal membranes; experiment: In vivo labeling of rat striatal membranes by [N-methyl-^3 H] Compound after subcutaneous injection
[3] = tested on: dopamine D-1 receptors; conditions: J. Pharmacol. Exp. Ther., 226: 462 (1983); cited from earlier work
[4] = target: T1, D-1 receptor; experiment: Saturation binding of [N-methyl-^3 H] Compound in rat striatum; conditions: binding as a function of radioligand concentration, 25 min
Method: as §1

[5] = Recovery of radioactivity from polypropylene assay tubes (adsorption onto surfaces); format: physicochemical; conditions: polypropylene tubes used in these experiments

For CN1CCc2cc(Cl)c(O)cc2[C@H]2c3ccccc3CC[C@@H]21 [Compound, [-]trans 6,7,7a,8,9,13b-hexahydro-3-chloro-2-hydroxy-N-methyl-5H-benzo[d]naphtho[2,1-b]-azepine], the Ki [1] was 3.6 nM.

In the case of CN1CCc2cc(Cl)c(O)cc2[C@@H](c2ccccc2)C1 [R-(+)-8-chloro-2,3,4,5-tetrahydro-3-methyl-5-phenyl-1H-3-benzazepine-7-ol, reference compound], the “inhibition of striatal binding of [N-methyl-^3 H] Compound in vivo” value ([2]; 1 umole of inhibitor) is listed as 90% and the “selectivity for dopamine D-1 receptors over D-2 receptors” value [3] is listed as 2500 fold.

For [3H]C([3H])([3H])N1CCc2cc(Cl)c(O)cc2C2c3ccccc3CCC21 (stereo not drawn) [[N-methyl-^3 H] Compound], the “time of optimal binding after subcutaneous injection” value ([2]; subcutaneous, striatal membranes) was 1 h, the “KD (disassociation constant)” value [4] was 1.7 nM and the “recoverable radioactivity from the polypropylene tubes” value [5] was 97%.
